Assay results taken from paper PMC5681660, “Reduced hepatitis B and D viral entry using clinically applied drugs as novel inhibitors of the bile acid transporter NTCP” (Scientific Reports, 2017).
Counter-ions that a name gives are not always drawn. Like-named read-outs stand apart in the source and are kept apart here.

What was measured:
human NTCP [1] = target: T1, human NTCP (Homo sapiens, UniProt Q14973); test: Screening taurocholate uptake assay (96-well, [14C]taurocholate, 10 µM drug)
T1 sequence (Q14973 1-349): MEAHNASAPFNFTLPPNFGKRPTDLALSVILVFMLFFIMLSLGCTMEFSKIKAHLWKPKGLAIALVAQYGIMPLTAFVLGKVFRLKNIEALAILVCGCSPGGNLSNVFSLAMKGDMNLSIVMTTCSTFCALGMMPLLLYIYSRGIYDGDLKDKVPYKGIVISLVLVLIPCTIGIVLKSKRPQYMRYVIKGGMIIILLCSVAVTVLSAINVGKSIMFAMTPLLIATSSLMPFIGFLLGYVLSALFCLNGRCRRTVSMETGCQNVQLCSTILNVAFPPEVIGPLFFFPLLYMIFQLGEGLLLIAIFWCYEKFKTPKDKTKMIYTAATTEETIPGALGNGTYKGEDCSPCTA

human NTCP [2] = target: T1, human NTCP; test: Screening fluorescent competitive Myrcludex B-FITC binding assay (96-well, 10 µM drug)
[3] = Prestwick library screen, 10 µM drug, B-score of taurocholate uptake
[4] = combined ranking from functional and binding assay B-scores
[5] = Prestwick library screen, 10 µM drug, B-score of Myrcludex B-FITC binding
[6] = combined ranking from functional and binding screening assays
[7] = screen, 10 µM drug, taurocholate uptake
[8] = screen, 10 µM drug, Myrcludex B-FITC binding
[9] = Prestwick library screen, taurocholate uptake, 10 µM drug
[10] = ranking score beside the functional and binding assay B-scores of the screen
[11] = Prestwick library screen, Myrcludex B-FITC binding, 10 µM drug

Row | SMILES | Ranking score (human NTCP [1]; [6]) | B-score functional assay (human NTCP [1]; [7]) | B-score binding assay (human NTCP [2]; [8]) | B-score functional assay (human NTCP [1]; [9]) | Ranking score (human NTCP [1]; [10]) | B-score binding assay (human NTCP [2]; [11]) | other results
1 | CS(=O)(=O)O.OC(CCN1CCCCC1)(c1ccccc1)c1ccccc1 [Pridinol methanesulfonate salt] | – | – | – | – | – | – | B-score functional assay (human NTCP [1]; [3]): 1.063; Ranking score (human NTCP [1]; [4]): 875.882; B-score binding assay (human NTCP [2]; [5]): 0.059
2 | CC(C)(C)NCC(O)COc1cccc2c1CC(O)C(O)C2 (stereo not drawn) [Nadolol] | – | – | – | – | – | – | B-score functional assay (human NTCP [1]; [3]): 0.292; Ranking score (human NTCP [1]; [4]): 986.853; B-score binding assay (human NTCP [2]; [5]): 1.627
3 | CC(C)C[C@H](CN)CC(=O)O [Pregabalin] | – | – | – | – | – | – | B-score functional assay (human NTCP [1]; [3]): 1.204; Ranking score (human NTCP [1]; [4]): 863.391; B-score binding assay (human NTCP [2]; [5]): 0.027
4 | Cc1ccc(C(=O)c2cc(O)c(O)c([N+](=O)[O-])c2)cc1 [Tolcapone] | 424.338 | -1.594 | 1.049 | – | – | – | –
5 | Cl.O=C(OCC(O)CO)c1ccccc1Nc1ccnc2cc(Cl)ccc12 (stereo not drawn) [Glafenine hydrochloride] | – | – | – | – | – | – | B-score functional assay (human NTCP [1]; [3]): 0.341; Ranking score (human NTCP [1]; [4]): 1037.91; B-score binding assay (human NTCP [2]; [5]): 3.077
6 | Cc1cccc(C)c1NC(=O)C(C)N (stereo not drawn) [Tocainide hydrochloride] | – | – | – | – | – | – | B-score functional assay (human NTCP [1]; [3]): 1.054; Ranking score (human NTCP [1]; [4]): 1036.23; B-score binding assay (human NTCP [2]; [5]): 0.83
7 | COP(=O)(OC)C(O)C(Cl)(Cl)Cl (stereo not drawn) [Trichlorfon] | 431.184 | -0.853 | 0.016 | – | – | – | –
8 | C[C@](N)(Cc1ccc(O)c(O)c1)C(=O)O [Methyldopa (L,-)] | – | – | – | 1.009 | 793.128 | -0.046 | –
9 | CN(C)CCOC(C)(c1ccccc1)c1ccccn1 (stereo not drawn) [Doxylamine succinate] | 393.435 | 0.231 | -1.318 | – | – | – | –
10 | CCCCOC(=O)c1ccc(O)cc1 [Butylparaben] | – | – | – | 5.239 | 668.543 | -0.593 | –
11 | C[C@]12CCC(=O)C=C1C=C[C@@H]1[C@@H]2CC[C@@]2(C)[C@H]1CC[C@@]2(O)CCC(=O)[O-].[K+] [Canrenoic acid potassium salt] | – | – | – | 0.356 | 751.562 | 0.007 | –
12 | CC[C@H]1OC(=O)[C@H](C)[C@@H](O[C@H]2C[C@@](C)(OC)[C@@H](O)[C@H](C)O2)[C@H](C)[C@@H](O[C@@H]2O[C@H](C)C[C@H](N(C)C)[C@H]2O)[C@](C)(O)C[C@@H](C)C(=O)[C@H](C)[C@@H](O)[C@]1(C)O [Erythromycin] | – | – | – | – | – | – | B-score functional assay (human NTCP [1]; [3]): 3.026; Ranking score (human NTCP [1]; [4]): 1129.71; B-score binding assay (human NTCP [2]; [5]): 0.93
13 | C[C@]12CCC(=O)C=C1CC[C@@H]1[C@@H]2C(=O)C[C@@]2(C)[C@H]1CC[C@]2(O)C(=O)CO [Cortisone] | 405.336 | -0.212 | -0.62 | – | – | – | –
14 | CCC(=O)[C@@]1(C)[C@H](C)C[C@H]2[C@@H]3CCC4=CC(=O)C=C[C@]4(C)[C@H]3[C@@H](O)C[C@@]21C [Rimexolone] | 362.647 | -0.597 | -0.495 | – | – | – | –
15 | NC(=O)N1c2ccccc2C=Cc2ccccc21 [Carbamazepine] | – | – | – | -0.062 | 671.795 | 0.183 | –
16 | CO[C@@H]1[C@@H](O[C@@H]2O[C@H](C)[C@@H](O[C@H]3C[C@@](C)(O)[C@@H](OC(=O)CC(C)C)[C@H](C)O3)[C@H](N(C)C)[C@H]2O)[C@@H](CC=O)C[C@@H](C)[C@@H](O)/C=C/C=C/C[C@@H](C)OC(=O)C[C@H]1OC(C)=O [Josamycin] | – | – | – | 0.552 | 744.048 | -0.039 | –
17 | CC(=O)N(CC(O)CO)c1c(I)c(C(=O)NCC(O)CO)c(I)c(C(=O)NCC(O)CO)c1I (stereo not drawn) [Iohexol] | – | – | – | 0.198 | 748.519 | 0.046 | –
18 | CCCCCCNC(=O)n1cc(F)c(=O)[nH]c1=O [Carmofur] | 358.68 | -2.036 | 0.877 | – | – | – | –
19 | CC(C)(C)NC[C@H](O)COc1ccccc1C1CCCC1 [Penbutolol sulfate] | 368.646 | 0.103 | -1.346 | – | – | – | –
20 | C[C@H]1C[C@@H]2[C@H]([C@@H](O)C[C@@]3(C)[C@H]2CC[C@]3(O)C(=O)CO)[C@@]2(C)C=CC(=O)C=C12 [Methylprednisolone, 6-alpha] | – | – | – | – | – | – | B-score functional assay (human NTCP [1]; [3]): 0.477; Ranking score (human NTCP [1]; [4]): 941.018; B-score binding assay (human NTCP [2]; [5]): 0.779
21 | NCCc1cc[nH]n1 [Betazole hydrochloride] | – | – | – | 0.019 | 836.299 | 1.024 | –
22 | Cc1cnc(C(=O)O)c[n+]1[O-] [Acipimox] | – | – | – | – | – | – | B-score functional assay (human NTCP [1]; [3]): 0.91; Ranking score (human NTCP [1]; [4]): 894.262; B-score binding assay (human NTCP [2]; [5]): 0.142

Row | SMILES | Ranking score (human NTCP [1]; [6]) | B-score functional assay (human NTCP [1]; [7]) | B-score binding assay (human NTCP [2]; [8]) | B-score functional assay (human NTCP [1]; [9]) | Ranking score (human NTCP [1]; [10]) | B-score binding assay (human NTCP [2]; [11]) | other results
23 | c1coc(CNc2ncnc3nc[nH]c23)c1 [6-Furfurylaminopurine] | – | – | – | 2.357 | 696.25 | -0.434 | –
24 | COc1cc(NC(C)CCCN)c2ncccc2c1 (stereo not drawn) [Primaquine diphosphate] | – | – | – | – | – | – | B-score functional assay (human NTCP [1]; [3]): 4.393; Ranking score (human NTCP [1]; [4]): 1046.51; B-score binding assay (human NTCP [2]; [5]): 0.361
25 | CC(=O)S[C@@H]1CC2=CC(=O)CC[C@]2(C)[C@H]2CC[C@@]3(C)[C@@H](CC[C@@]34CCC(=O)O4)[C@H]12 [Spironolactone] | – | – | – | -0.089 | 751.977 | 0.972 | –
26 | NC(N)=Nc1nc(CSCCC(N)=NS(N)(=O)=O)cs1 [Famotidine] | – | – | – | 0.754 | 828.628 | 0.039 | –
27 | CNCCCC1c2ccccc2C=Cc2ccccc21 [Protriptyline hydrochloride] | 390.896 | -0.483 | -0.431 | – | – | – | –
28 | CCN(CCCc1ccccc1)CCCc1ccccc1.O=C(O)CC(O)(CC(=O)O)C(=O)O [Alverine citrate salt] | 318.591 | -1.552 | -0.052 | – | – | – | –
29 | CNCCC=C1c2ccccc2C=Cc2ccccc21 [Norcyclobenzaprine] | – | – | – | 0.855 | 807.009 | -0.001 | –
30 | COC(=O)Nc1nc2ccc(C(=O)c3cccs3)cc2[nH]1 [Nocodazole] | 428.035 | -1.345 | 0.497 | – | – | – | –
31 | N[C@@H]1C[C@H]1c1ccccc1 [Tranylcypromine hydrochloride] | – | – | – | – | – | – | B-score functional assay (human NTCP [1]): 0.857; Ranking score (human NTCP [1]): 1041.86; B-score binding assay (human NTCP [2]): 1.095
32 | Cc1ccc(N(CC2=NCCN2)c2cccc(O)c2)cc1 [Phentolamine hydrochloride] | – | – | – | -0.082 | 785.945 | 1.392 | –
33 | C=CC[N@@+]12CC[C@@]34c5ccccc5N5/C=C6/[C@H]7C[C@H]8[C@@]9(CC[N@@+]8(CC=C)C/C7=C/CO)c7ccccc7N(/C=C(/[C@@H](C[C@@H]31)/C(=C\CO)C2)[C@H]54)[C@@H]69.[Cl-].[Cl-] [Alcuronium chloride] | 375.739 | 1.096 | -1.767 | – | – | – | –
34 | CC(C[N+](C)(C)C)OC(N)=O (stereo not drawn) [Bethanechol chloride] | – | – | – | – | – | – | B-score functional assay (human NTCP [1]; [3]): 1.898; Ranking score (human NTCP [1]; [4]): 1067.05; B-score binding assay (human NTCP [2]; [5]): 0.661
35 | COc1ccc2cc(CCC(C)=O)ccc2c1 [Nabumetone] | 286.691 | -0.236 | -1.377 | – | – | – | –
36 | Cc1nccn1CC1CCc2c(c3ccccc3n2C)C1=O.Cl (stereo not drawn) [Ondansetron Hydrochloride] | – | – | – | 0.043 | 666.933 | 0 | –
37 | OCC(O)CN1CCN(c2ccccc2)CC1 (racemic) [Dropropizine (R,S)] | – | – | – | 0.232 | 761.407 | 0.054 | –
38 | CC[C@@H](CO)NC(=O)[C@@H]1C=C2c3cccc4[nH]cc(c34)C[C@H]2N(C)C1 [Methylergometrine maleate] | – | – | – | – | – | – | B-score functional assay (human NTCP [1]; [3]): 0.963; Ranking score (human NTCP [1]; [4]): 1029.08; B-score binding assay (human NTCP [2]; [5]): 0.851
39 | O=C1CN2Cc3c(ccc(Cl)c3Cl)N=C2N1 [Anagrelide] | – | – | – | – | – | – | B-score functional assay (human NTCP [1]; [3]): 0.197; Ranking score (human NTCP [1]; [4]): 871.654; B-score binding assay (human NTCP [2]; [5]): 0.622
40 | COc1ccccc1O [Guaiacol] | – | – | – | -0.032 | 782.911 | 0.94 | –
41 | Nc1ncnc2c1ncn2[C@@H]1O[C@H](CO)[C@@H](O)[C@@H]1O [Vidarabine] | 319.086 | -2.606 | 1.523 | – | – | – | –
42 | Nc1ccc(S(=O)(=O)Nc2nccs2)cc1 [Sulfathiazole] | 386.996 | -1.223 | 0.039 | – | – | – | –
43 | CC(C)[N+](C)(CCC(C(N)=O)(c1ccccc1)c1ccccc1)C(C)C [Isopropamide iodide] | – | – | – | 0.036 | 698.928 | 0.056 | –
44 | CCCNC(C)C(=O)Nc1c(C)csc1C(=O)OC (stereo not drawn) [Articaine hydrochloride] | 451.414 | -1.04 | 0.267 | – | – | – | –
